From ChEMBL document CHEMBL1250448, “Inhibitor hijacking of Akt activation” (Nat Chem Biol, 2009)
Blank lines part the entries; values can stand above or below the compound they belong to. The source made the active and inactive calls. The rule behind the calls is not given here.

Experiments:
[1] = system: PC-3; test: Induction of myristoylated AKT2 M225G mutant Thr308 hyperphosphorylation expressed in PC3 cells at 2.5 uM after 30 mins by immunoblotting; type: cell-based
[2] = system: RAC-alpha serine/threonine-protein kinase (Homo sapiens), P31749 [M227G,D292A]; test: Induction of myristoylated AKT1 M227G and kinase dead D292A mutant Ser473 hyperphosphorylation expressed in MCF7 cells at 2.5 uM after 30 mins by immunoblotting; type: cell-based
Chain of RAC-alpha serine/threonine-protein kinase (Homo sapiens), P31749 [M227G,D292A] (P31749 whole entry M227G/D292A): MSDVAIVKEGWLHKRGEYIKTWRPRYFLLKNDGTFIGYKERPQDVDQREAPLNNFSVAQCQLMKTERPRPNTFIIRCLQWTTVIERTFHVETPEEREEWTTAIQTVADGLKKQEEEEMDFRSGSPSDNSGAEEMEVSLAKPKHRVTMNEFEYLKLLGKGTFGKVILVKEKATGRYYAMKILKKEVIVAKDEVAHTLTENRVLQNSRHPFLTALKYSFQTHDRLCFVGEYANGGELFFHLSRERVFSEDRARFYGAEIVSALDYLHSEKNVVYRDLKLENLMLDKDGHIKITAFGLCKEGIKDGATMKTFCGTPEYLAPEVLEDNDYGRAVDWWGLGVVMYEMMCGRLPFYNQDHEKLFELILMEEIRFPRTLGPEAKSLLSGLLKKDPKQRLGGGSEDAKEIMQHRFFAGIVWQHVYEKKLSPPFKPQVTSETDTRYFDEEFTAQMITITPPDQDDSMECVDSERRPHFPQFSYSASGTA

[3] = system: MCF7; test: Induction of myristoylated AKT2 M225G and kinase dead D289A mutant Ser473 hyperphosphorylation expressed in MCF7 cells at 2.5 uM after 30 mins by immunoblotting; type: cell-based
[4] = system: RAC-alpha serine/threonine-protein kinase (Homo sapiens), P31749 [M227G,D292A]; test: Induction of myristoylated AKT1 M227G and kinase dead D292A mutant Ser473 hyperphosphorylation expressed in MiaPaCa2 cells at 2.5 uM after 30 mins by immunoblotting; type: cell-based
[5] = system: MiaPaCa2; test: Induction of myristoylated AKT2 M225G and kinase dead D289A mutant Ser473 hyperphosphorylation expressed in MiaPaCa2 cells at 2.5 uM after 30 mins by immunoblotting; type: cell-based
[6] = system: PC-3; test: Induction of myristoylated AKT2 M225G and kinase dead D289A mutant Ser473 hyperphosphorylation expressed in PC3 cells at 2.5 uM after 30 mins by immunoblotting; type: cell-based
[7] = system: RAC-alpha serine/threonine-protein kinase (Homo sapiens), P31749 [M227G]; test: Induction of myristoylated AKT1 M227G Ser473 hyperphosphorylation expressed in PC3 cells at 2.5 uM after 30 mins by immunoblotting; type: cell-based; conditions: PC-3
Chain of RAC-alpha serine/threonine-protein kinase (Homo sapiens), P31749 [M227G] (P31749 whole entry M227G): as the sequence (P31749 whole entry M227G/D292A) above, with A292D counted along it

[8] = system: PC-3; test: Induction of myristoylated AKT2 M225G mutant Ser473 hyperphosphorylation expressed in PC3 cells at 2.5 uM after 30 mins by immunoblotting; type: cell-based
[9] = system: RAC-alpha serine/threonine-protein kinase (Homo sapiens), P31749 [M227G]; test: Induction of myristoylated AKT1 M227G Thr308 hyperphosphorylation expressed in HEK293 cells coexpressing flag-tagged wild type AKT1 after 30 mins by immunoblotting; type: cell-based
[10] = system: RAC-alpha serine/threonine-protein kinase (Homo sapiens), P31749 [M227G]; test: Induction of flag tagged AKT1 M227G Thr308 hyperphosphorylation expressed in HEK293 cells at 2.5 uM after 30 mins by immunoblotting; type: cell-based
[11] = system: RAC-alpha serine/threonine-protein kinase (Homo sapiens), P31749 [M227G]; test: Induction of mCherry tagged AKT1 M227G Ser473 hyperphosphorylation expressed in HEK293 cells at 2.5 uM after 30 mins by immunoblotting; type: cell-based
[12] = system: RAC-alpha serine/threonine-protein kinase (Homo sapiens), P31749 [M227G]; test: Induction of mCherry tagged AKT1 M227G Thr308 hyperphosphorylation expressed in HEK293 cells at 2.5 uM after 30 mins by immunoblotting; type: cell-based
[13] = system: RAC-alpha serine/threonine-protein kinase (Homo sapiens), P31749 [M227G]; test: Induction of myristoylated AKT1 M227G mutant Ser473 hyperphosphorylation expressed in HEK293T cells at 2.5 uM after 30 mins by immunoblotting; type: cell-based; conditions: HEK-293T
[14] = system: HEK-293T; test: Induction myristoylated AKT2 M225G mutant Thr308 hyperphosphorylation expressed in HEK293T cells at 2.5 uM after 30 mins by immunoblotting; type: cell-based
[15] = system: HEK-293T; test: Induction of myristoylated AKT3 M229G mutant Ser473 hyperphosphorylation expressed in HEK293T cells at 2.5 uM after 30 mins by immunoblotting; type: cell-based
[16] = system: RAC-alpha serine/threonine-protein kinase (Homo sapiens), P31749 [M227G]; test: Inhibition of myristoylated AKT1 M227G mutant expressed in HEK293T cells assessed as reduction of GSK3-beta Ser9 phosphorylation after 30 mins by immunoblotting; type: cell-based; conditions: HEK-293T
[17] = system: HEK-293T; test: Induction of myristoylated AKT3 M229G mutant Thr308 hyperphosphorylation expressed in HEK293T cells at 2.5 uM after 30 mins pretreated with pan-PI3K inhibitor PIK90 for 10 mins before compound addition by immunoblotting; type: cell-based
[18] = system: RAC-alpha serine/threonine-protein kinase (Homo sapiens), P31749 [M227G,R25C]; test: Induction of myristoylated AKT1 M227G and R25C mutant Thr308 hyperphosphorylation expressed in HEK293T cells at 2.5 uM after 30 mins by immunoblotting; type: cell-based; conditions: HEK-293T
Chain of RAC-alpha serine/threonine-protein kinase (Homo sapiens), P31749 [M227G,R25C] (P31749 whole entry R25C/M227G): as the sequence (P31749 whole entry M227G/D292A) above, with R25C, A292D counted along it

[19] = system: HEK-293T; test: Induction myristoylated AKT2 M225G mutant Thr308 hyperphosphorylation expressed in HEK293T cells at 2.5 uM after 30 mins pretreated with PDK1 inhibitor BX-795 for 10 mins before compound addition by immunoblotting; type: cell-based
[20] = system: HEK-293T; test: Induction myristoylated AKT2 M225G mutant Ser473 hyperphosphorylation expressed in HEK293T cells at 2.5 uM after 30 mins pretreated with PDK1 inhibitor BX-795 for 10 mins before compound addition by immunoblotting; type: cell-based
[21] = system: HEK-293T; test: Induction of myristoylated AKT3 M229G mutant Thr308 hyperphosphorylation expressed in HEK293T cells at 2.5 uM after 30 mins pretreated with PDK1 inhibitor BX-795 for 10 mins before compound addition by immunoblotting; type: cell-based
[22] = system: HEK-293T; test: Induction of myristoylated AKT3 M229G mutant Ser473 hyperphosphorylation expressed in HEK293T cells at 2.5 uM after 30 mins pretreated with PDK1 inhibitor BX-795 for 10 mins before compound addition by immunoblotting; type: cell-based
[23] = system: RAC-alpha serine/threonine-protein kinase (Homo sapiens), P31749 [M227G]; test: Induction of myristoylated AKT1 M227G mutant Thr308 hyperphosphorylation expressed in HEK293T cells at 2.5 uM after 30 mins pretreated with mTOR kinase inhibitor PP242 for 10 mins before compound addition by immunoblotting; type: cell-based; conditions: HEK-293T
[24] = system: HEK-293T; test: Induction of myristoylated AKT3 M229G mutant Ser473 hyperphosphorylation expressed in HEK293T cells at 2.5 uM after 30 mins pretreated with mTOR kinase inhibitor PP242 for 10 mins before compound addition by immunoblotting; type: cell-based
[25] = system: RAC-alpha serine/threonine-protein kinase (Homo sapiens), P31749 [M227G,D292A]; test: Induction of nonmyristoylated AKT1 M227G and kinase dead D292A mutant Thr308 hyperphosphorylation expressed in HEK293T cells at 2.5 uM after 30 mins by immunoblotting; type: cell-based; conditions: HEK-293T
[26] = system: RAC-alpha serine/threonine-protein kinase (Homo sapiens), P31749 [M227G,D292A]; test: Induction of myristoylated AKT1 M227G and kinase dead D292A mutant Thr308 hyperphosphorylation expressed in MCF7 cells at 2.5 uM after 30 mins by immunoblotting; type: cell-based
[27] = system: MCF7; test: Induction of myristoylated AKT2 M225G and kinase dead D289A mutant Thr308 hyperphosphorylation expressed in MCF7 cells at 2.5 uM after 30 mins by immunoblotting; type: cell-based
[28] = system: RAC-alpha serine/threonine-protein kinase (Homo sapiens), P31749 [M227G,D292A]; test: Induction of myristoylated AKT1 M227G and kinase dead D292A mutant Thr308 hyperphosphorylation expressed in MiaPaCa2 cells at 2.5 uM after 30 mins by immunoblotting; type: cell-based
[29] = system: RAC-alpha serine/threonine-protein kinase (Homo sapiens), P31749 [M227G]; test: Induction of myristoylated AKT1 M227G Thr308 hyperphosphorylation expressed in MiaPaCa2 cells at 2.5 uM after 30 mins by immunoblotting; type: cell-based
[30] = system: RAC-alpha serine/threonine-protein kinase (Homo sapiens), P31749 [M227G]; test: Induction of AKT1 M227G Ser473 hyperphosphorylation expressed in HEK293 cells at 2.5 uM after 30 mins pretreated with allosteric AKT inhibitor Akti-1,2 10 mins before compound addition by immunoblotting
[31] = system: RAC-alpha serine/threonine-protein kinase (Homo sapiens), P31749 [M227G]; test: Induction of AKT1 M227G Thr308 hyperphosphorylation expressed in HEK293 cells at 2.5 uM after 30 mins pretreated with allosteric AKT inhibitor Akti-1,2 10 mins before compound addition by immunoblotting
[32] = target: RAC-alpha serine/threonine-protein kinase (Homo sapiens, UniProt P31749); test: Inhibition of AKT1
Chain of RAC-alpha serine/threonine-protein kinase (P31749 whole entry): as the sequence (P31749 whole entry M227G/D292A) above, with G227M, A292D counted along it

Activity [2]: Active | Activity [4]: Active | Activity [7]: Active | Activity [9]: Active | Activity [10]: Active | Activity [11]: Active | Activity [12]: Active | Activity [13]: Active | inhibition [16]: Active | Activity [18]: inactive | Activity [23]: Active | Activity [25]: Active | Activity [26]: Active | Activity [28]: Active | Activity [29]: Active | Activity [30]: inactive | Activity [31]: inactive
SMILES: CCCc1cc(-c2cncc(OC[C@@H](N)Cc3c[nH]c4ccccc34)c2)cc2c(C)n[nH]c12
Activity [1]: Active | Activity [3]: Active | Activity [5]: Active | Activity [6]: Active | Activity [8]: Active | Activity [14]: Active | Activity [15]: Active | Activity [17]: inactive | Activity [19]: inactive | Activity [20]: inactive | Activity [21]: inactive | Activity [22]: inactive | Activity [24]: inactive | Activity [27]: Active

IC50 [32]: 22 µM
SMILES: COc1ccccc1N1CCN(c2ncnc3[nH]nc(Br)c23)CC1
